Test results taken from US6737383B1, “Herbicidal oxadiazolidines” (priority 1999, dated 2004).

Key:
[1] = system: duck salad; assay: Test B flood test duck salad; format: in vivo, Heteranthera limosa
Procedure, shortened: (§1)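 Plants were grown to the 2-leaf stage before treatment with test chemical, then held in a greenhouse for twelve to sixteen days. Injury was visually rated against untreated controls on a 0–10 scale, where 0 is no effect and 10 is complete control.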

[2] = system: purple nutsedge; assay: Test B pre/postemergence purple nutsedge; format: in vivo, Cyperus rotundus; details: for Nutsedge plant response rating: scale of 0 to 10 where 0 is no effect and 10 is complete control
Procedure, shortened: (§2)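 Test chemicals in a non-phytotoxic solvent mixture with surfactant were sprayed preemergence onto planted seeds and postemergence onto plants 2 to 18 cm tall (1- to 4-leaf stage). After twelve to sixteen days in a greenhouse, injury was visually rated against untreated controls from 0 (no effect) to 10 (complete control).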

[3] = system: giant foxtail; assay: Test B pre/postemergence giant foxtail; format: in vivo, Setaria faberii; details: for Giant foxtail plant response rating: scale of 0 to 10 where 0 is no effect and 10 is complete control
Procedure, shortened: as §2

[4] = system: morningglory; assay: Test B pre/postemergence morningglory; format: in vivo, Ipomoea hederacea; details: for Morningglory plant response rating: scale of 0 to 10 where 0 is no effect and 10 is complete control
Procedure, shortened: as §2

[5] = system: soybean; assay: Test B pre/postemergence soybean; format: in vivo, Glycine max; details: for Soybean plant response rating: scale of 0 to 10 where 0 is no effect and 10 is complete control
Procedure, shortened: as §2

[6] = system: blackgrass; assay: Test B pre/postemergence blackgrass; format: in vivo, Alopecurus myosuroides; details: for Blackgrass plant response rating: scale of 0 to 10 where 0 is no effect and 10 is complete control
Procedure, shortened: as §2

[7] = system: bamyardgrass; assay: Test B flood test barnyardgrass; format: in vivo, Echinochloa crus-galli
Procedure, shortened: as §1

[8] = system: rice; assay: Test B flood test rice; format: in vivo, Oryza sativa
Procedure, shortened: as §1

[9] = system: rape; assay: Test B pre/postemergence rape; format: in vivo, Brassica napus; details: for Rape plant response rating: scale of 0 to 10 where 0 is no effect and 10 is complete control
Procedure, shortened: as §2

[10] = system: smallflower flatsedge; assay: Test B flood test smallflower flatsedge; format: in vivo, Cyperus difformis
Procedure, shortened: as §1

[11] = system: cocklebur; assay: Test B pre/postemergence cocklebur; format: in vivo, Xanthium strumarium; details: for Cocklebur plant response rating: scale of 0 to 10 where 0 is no effect and 10 is complete control
Procedure, shortened: as §2

[12] = system: wheat; assay: Test B pre/postemergence wheat; format: in vivo, Triticum aestivum; details: for Wheat plant response rating: scale of 0 to 10 where 0 is no effect and 10 is complete control
Procedure, shortened: as §2

[13] = system: pigweed; assay: Test B pre/postemergence pigweed; format: in vivo, Amaranthus retroflexus; details: for Redroot pigweed plant response rating: scale of 0 to 10 where 0 is no effect and 10 is complete control
Procedure, shortened: as §2

[14] = system: velvetleaf; assay: Test B pre/postemergence velvetleaf; format: in vivo, Abutilon theophrasti; details: for Velvetleaf plant response rating: scale of 0 to 10 where 0 is no effect and 10 is complete control
Procedure, shortened: as §2

[15] = system: wild oat; assay: Test B pre/postemergence wild oat; format: in vivo, Avena fatua; details: for Wild oats plant response rating: scale of 0 to 10 where 0 is no effect and 10 is complete control
Procedure, shortened: as §2

[16] = system: sugar beet; assay: Test B pre/postemergence sugar beet; format: in vivo, Beta vulgaris; details: for Sugarbeets plant response rating: scale of 0 to 10 where 0 is no effect and 10 is complete control
Procedure, shortened: as §2

[17] = Rate 62 g/ha, flood test species, Pre-emergence, visual evaluation after twelve to sixteen days
[18] = Rate 125 g/ha, under heading Pre-emergence, flood test species, visual evaluation after twelve to sixteen days
[19] = Rate 250 g/ha, Pre-emergence, flood-test species, scale 0 to 10, 0 is no effect, 10 is complete control
[20] = Rate 500 g/ha, Pre-emergence, flood test species, scale 0 to 10 (0 no effect, 10 complete control)
[21] = Postemergence, Rate 125 g/ha, scale 0 to 10, 0 is no effect, 10 is complete control
[22] = Postemergence, Rate 250 g/ha, scale 0 to 10, 0 is no effect, 10 is complete control
[23] = Preemergence, Rate 62 g/ha, scale 0 to 10 (0 no effect, 10 complete control)
[24] = Rate 500 g/ha, Postemergence, scale 0 to 10, 0 no effect, 10 complete control

SMILES: CC(C)N(C(=O)n1oc(=O)n(N2C(C)CCCC2C)c1=O)c1ccc(F)cc1F (stereo not shown) [Compound 383]
- Plant response rating, Ducksalad (0 to 10 scale, 0 is no effect, 10 is complete control) [1, 17]: 0
- Ducksalad plant response rating (0 to 10 scale, 0 is no effect, 10 is complete control) [1, 18]: 0
- Ducksalad plant response rating [1, 19]: 0
- Ducksalad plant response rating [1, 20]: 0
- Plant response rating, Nutsedge [2, 21]: 0
- Plant response rating, Nutsedge [2, 22]: 0
- Plant response rating, Nutsedge [2, 23]: 0
- Nutsedge plant response rating (0 to 10 scale) ([2]; Preemergence, Rate 125 g/ha): 0
- Nutsedge plant response rating ([2]; Preemergence, Rate 250 g/ha): 0
- Nutsedge plant response rating ([2]; Preemergence, Rate 500 g/ha): 0
- Nutsedge plant response rating ([2]; Rate 62 g/ha, Postemergence): 0
- Plant response rating, Nutsedge [2, 24]: 0
- Plant response rating, Giant foxtail [3, 21]: 0
- Plant response rating, Giant foxtail [3, 22]: 6
- Plant response rating, Giant foxtail [3, 23]: 0
- Giant foxtail plant response rating (0 to 10 scale) ([3]; Preemergence, Rate 125 g/ha): 7
- Giant foxtail plant response rating ([3]; Preemergence, Rate 250 g/ha): 10
- Giant foxtail plant response rating ([3]; Preemergence, Rate 500 g/ha): 10
- Giant foxtail plant response rating ([3]; Rate 62 g/ha, Postemergence): 0
- Plant response rating, Giant foxtail [3, 24]: 6
- Plant response rating, Morningglory [4, 21]: 0
- Plant response rating, Morningglory [4, 22]: 0
- Plant response rating, Morningglory [4, 23]: 0
- Morningglory plant response rating (0 to 10 scale) ([4]; Preemergence, Rate 125 g/ha): 0
- Morningglory plant response rating ([4]; Preemergence, Rate 250 g/ha): 0
- Morningglory plant response rating ([4]; Preemergence, Rate 500 g/ha): 0
- Morningglory plant response rating ([4]; Rate 62 g/ha, Postemergence): 0
- Plant response rating, Morningglory [4, 24]: 0
- Plant response rating, Soybean [5, 21]: 3
- Plant response rating, Soybean [5, 22]: 3
- Plant response rating, Soybean [5, 23]: 0
- Soybean plant response rating (0 to 10 scale) ([5]; Preemergence, Rate 125 g/ha): 0
- Soybean plant response rating ([5]; Preemergence, Rate 250 g/ha): 0
- Soybean plant response rating ([5]; Preemergence, Rate 500 g/ha): 0
- Soybean plant response rating ([5]; Rate 62 g/ha, Postemergence): 2
- Plant response rating, Soybean [5, 24]: 5
- Plant response rating, Blackgrass [6, 21]: 0
- Plant response rating, Blackgrass [6, 22]: 2
- Plant response rating, Blackgrass [6, 23]: 0
- Blackgrass plant response rating (0 to 10 scale) ([6]; Preemergence, Rate 125 g/ha): 0
- Blackgrass plant response rating ([6]; Preemergence, Rate 250 g/ha): 2
- Blackgrass plant response rating ([6]; Preemergence, Rate 500 g/ha): 7
- Blackgrass plant response rating ([6]; Rate 62 g/ha, Postemergence): 0
- Plant response rating, Blackgrass [6, 24]: 8
- Plant response rating, Barnyardgrass (0 to 10 scale, 0 is no effect, 10 is complete control) [7, 17]: 0
- Barnyardgrass plant response rating (0 to 10 scale, 0 is no effect, 10 is complete control) [7, 18]: 0
- Barnyardgrass plant response rating [7, 19]: 0
- Barnyardgrass plant response rating [7, 20]: 0
- Plant response rating, Rice (0 to 10 scale, 0 is no effect, 10 is complete control) [8, 17]: 0
- Rice plant response rating (0 to 10 scale, 0 is no effect, 10 is complete control) [8, 18]: 0
- Rice plant response rating [8, 19]: 0
- Rice plant response rating [8, 20]: 0
- Plant response rating, Rape [9, 21]: 0
- Plant response rating, Rape [9, 22]: 0
- Plant response rating, Rape [9, 23]: 0
- Rape plant response rating (0 to 10 scale) ([9]; Preemergence, Rate 125 g/ha): 0
- Rape plant response rating ([9]; Preemergence, Rate 250 g/ha): 0
- Rape plant response rating ([9]; Preemergence, Rate 500 g/ha): 0
- Rape plant response rating ([9]; Rate 62 g/ha, Postemergence): 0
- Plant response rating, Rape [9, 24]: 0
- Plant response rating, S. Flatsedge (0 to 10 scale, 0 is no effect, 10 is complete control) [10, 17]: 0
- S. Flatsedge plant response rating (0 to 10 scale, 0 is no effect, 10 is complete control) [10, 18]: 0
- S. Flatsedge plant response rating [10, 19]: 0
- S. Flatsedge plant response rating [10, 20]: 0
- Plant response rating, Cocklebur [11, 21]: 0
- Plant response rating, Cocklebur [11, 22]: 0
- Plant response rating, Cocklebur [11, 23]: 0
- Cocklebur plant response rating (0 to 10 scale) ([11]; Preemergence, Rate 125 g/ha): 0
- Cocklebur plant response rating ([11]; Preemergence, Rate 250 g/ha): 0
- Cocklebur plant response rating ([11]; Preemergence, Rate 500 g/ha): 0
- Cocklebur plant response rating ([11]; Rate 62 g/ha, Postemergence): 0
- Plant response rating, Cocklebur [11, 24]: 0
- Plant response rating, Wheat [12, 21]: 0
- Plant response rating, Wheat [12, 22]: 0
- Plant response rating, Wheat [12, 23]: 0
- Wheat plant response rating (0 to 10 scale) ([12]; Preemergence, Rate 125 g/ha): 0
- Wheat plant response rating ([12]; Preemergence, Rate 250 g/ha): 0
- Wheat plant response rating ([12]; Preemergence, Rate 500 g/ha): 0
- Wheat plant response rating ([12]; Rate 62 g/ha, Postemergence): 0
- Plant response rating, Wheat [12, 24]: 0
- Plant response rating, Redroot pigweed [13, 21]: 0
- Plant response rating, Redroot pigweed [13, 22]: 0
- Plant response rating, Redroot pigweed [13, 23]: 0
- Redroot pigweed plant response rating (0 to 10 scale) ([13]; Preemergence, Rate 125 g/ha): 0
- Redroot pigweed plant response rating ([13]; Preemergence, Rate 250 g/ha): 0
- Redroot pigweed plant response rating ([13]; Preemergence, Rate 500 g/ha): 3
- Redroot pigweed plant response rating ([13]; Rate 62 g/ha, Postemergence): 0
- Plant response rating, Redroot pigweed [13, 24]: 0
- Plant response rating, Velvetleaf [14, 21]: 0
- Plant response rating, Velvetleaf [14, 22]: 0
- Plant response rating, Velvetleaf [14, 23]: 0
- Velvetleaf plant response rating (0 to 10 scale) ([14]; Preemergence, Rate 125 g/ha): 0
- Velvetleaf plant response rating ([14]; Preemergence, Rate 250 g/ha): 0
- Velvetleaf plant response rating ([14]; Preemergence, Rate 500 g/ha): 0
- Velvetleaf plant response rating ([14]; Rate 62 g/ha, Postemergence): 0
- Plant response rating, Velvetleaf [14, 24]: 0
- Plant response rating, Wild oats [15, 21]: 0
- Plant response rating, Wild oats [15, 22]: 0
- Plant response rating, Wild oats [15, 23]: 0
- Wild oats plant response rating (0 to 10 scale) ([15]; Preemergence, Rate 125 g/ha): 0
- Wild oats plant response rating ([15]; Preemergence, Rate 250 g/ha): 0
- Wild oats plant response rating ([15]; Preemergence, Rate 500 g/ha): 0
- Wild oats plant response rating ([15]; Rate 62 g/ha, Postemergence): 0
- Plant response rating, Wild oats [15, 24]: 0
- Plant response rating, Sugarbeets [16, 21]: 0
- Plant response rating, Sugarbeets [16, 22]: 0
- Plant response rating, Sugarbeets [16, 23]: 0
- Sugarbeets plant response rating (0 to 10 scale) ([16]; Preemergence, Rate 125 g/ha): 0
- Sugarbeets plant response rating ([16]; Preemergence, Rate 250 g/ha): 0
- Sugarbeets plant response rating ([16]; Preemergence, Rate 500 g/ha): 0
- Sugarbeets plant response rating ([16]; Rate 62 g/ha, Postemergence): 0
- Plant response rating, Sugarbeets [16, 24]: 0
